Laboratory results reported in paper PMC12156185, “Synthesis of Cyclic Hexapeptides via the Hydrazide Method and Evaluation of Their Antibacterial Activities” (Molecules, 2025).
Converted amounts (≈) assume the structure as drawn. Where a SMILES comes first, the peptide text is derived from it.

Assays:
Klebsiella pneumoniae [1] = experiment: Time-dependent growth kinetics (time-kill); format: cell-based; conditions: 37 °C
Method: Bacterial viability, expressed as logarithmic colony-forming units per milliliter (Lg CFU/mL), was monitored over 240 min at 37 °C. Results are presented in Figure 6, X as the mean Lg CFU/mL ± standard deviation (SD) from three independent experiments. […] At 2× MIC, a more pronounced effect was observed, with the Lg CFU/mL decreasing to 4.0, a 3.9 Lg CFU/mL reduction. […] This rapid killing profile supports Cy-f2’s potential as an effective antimicrobial peptide.
Klebsiella pneumoniae was cultured in fresh LB nutrient broth at 37 °C following the protocol described by Huang et al., with modifications. Upon reaching the logarithmic growth phase, the bacterial suspension was adjusted to approximately 10^6 CFU/mL and subsequently treated with cyclized f2 at concentrations corresponding to 1×, 2×, and 4× the minimum inhibitory concentration (MIC). Aliquots were collected at 1, 2, 3, and 4 h post-treatment, serially diluted, and plated onto solid agar medium for 24 h incubation. Colony-forming units (CFUs) were enumerated to assess bacterial viability. All experiments were performed in triplicate. Time-dependent growth kinetics were analyzed by plotting bacterial survival (log10 CFU/mL) against time (h) using GraphPad Prism9.5, enabling statistical evaluation of the bactericidal and bacteriostatic effects of the cyclic hexapeptide.

[2] = test system: Candida tropicalis (BNCC 340288); format: cell-based; conditions: BNCC 340288, 24 h
Method: (§1) The antimicrobial and antifungal activities of 11 cyclic hexapeptides (Cy-f1 to Cy-f11) were evaluated by determining their minimum inhibitory concentrations (MICs) against a panel of pathogens (Figure 4). These pathogens included Gram-negative bacteria (Escherichia coli, Klebsiella pneumoniae, Pseudomonas aeruginosa), Gram-positive bacteria (Staphylococcus aureus, Bacillus subtilis, Staphylococcus aureus [MRSA], […]), and fungi (Candida tropicalis, Cryptococcus neoformans).
(§2) The antibacterial activity of peptide analogs was tested against different bacterial strains, all purified cyclotides underwent antibacterial testing against Gram-positive bacterium Staphylococcus aureus (BNCC 186335), Bacillus subtilis (BNCC 109047), and Staphylococcus aureus (MRSA, BNCC 330041), Gram-negative bacteria, including Acinetobacter baumannii (BNCC 337173), Pseudomonas aeruginosa (BNCC 125486), and […]. Fungi included Candida parapsilosis (BNCC 336515) and Candida tropicalis (BNCC 340288). All the above strains are from the Henan Provincial Engineering Research Center of Industrial Microorganisms (Henan, China). Escherichia coli (ATCC 25922) and Klebsiella pneumoniae (CMCC(B) 46117) were sourced from Guangzhou HuanKai Microbial Technology Co., Ltd. (Guangzhou, China). The peptides’ MIC was determined using the Clinical and Laboratory Standards Institute broth dilution procedure with slight modifications.
Candida tropicalis was cultured on Sabourad Dextrose Agar (SDA). A single colony was inoculated in YM broth medium and grown overnight at 37 °C while shaking. Peptides were diluted in SDB media by two-fold dilution, resulting in 100 µL of medium containing increasing concentrations. The overnight culture (turbidity at OD600 = 1) was 1000× diluted in SDB. Then 100 µL of this suspension was added to each well, resulting in a final 200 µL suspension containing 2–4 × 10^5 CFU/mL. The plate was incubated at 37 °C for 24 h.
(§3) Each test was performed at least three times. MIC (minimum inhibitory concentration) values were determined as the concentrations of peptides that caused >99% inhibition of bacterial growth.

[3] = test system: Cryptococcus neoformans (BNCC 225501); format: cell-based; conditions: BNCC 225501, 48 h
Method: as §1, §2, §3

Klebsiella pneumoniae [4] = experiment: Scanning electron microscopy of treated cells; format: cell-based; conditions: 4 MIC (64 μM for Cy-f2, 128 μM for Cy-f4), 1 h, 37 °C, 5000× magnification; cefoperazone sodium as positive control
Method: (§4) To investigate the morphological effects of the cyclic peptides Cy-f2 and Cy-f4 on Klebsiella pneumoniae and Candida tropicalis, scanning electron microscopy (SEM) was performed (Figure 7). […] Untreated cells served as controls. Samples were fixed, dehydrated, and coated with gold for SEM imaging at 5000× magnification. Effects on Klebsiella pneumoniae (Panel A). […] The bactericidal efficacy of Cy-f2 and Cy-f4 against Klebsiella pneumoniae was verified through comparative evaluation of the treatment group and the positive control group. Effects on Candida tropicalis (Panel B) untreated C. tropicalis cells in the control group appeared as smooth, spherical to oval-shaped yeast cells with intact cell walls.
(§5) According to the method of He with adjustments, bacteria were grown to the logarithmic phase and then washed and resuspended in sterile PBS to an OD600 of 0.4. They were incubated with an equal volume of AMPs at 4× MIC for 1 h. After incubation, the bacterial pellets were washed three times with PBS and centrifuged at 3500 rpm for 4 min. The pellets were then fixed overnight in 2.5% (w/v) glutaraldehyde. The bacterial samples were dehydrated using a series of ethanol solutions with increasing concentrations (30%, 50%, 70%, 90%, and 100%). After dehydration, the samples were dried and sputter-coated with gold. Bacterial fragmentation was observed using scanning electron microscopy (HITACHI SU5000, Tokyo, Japan). Untreated bacterial suspensions served as the negative control.

Candida tropicalis = experiment: Scanning electron microscopy of treated cells; format: cell-based; conditions: 4 MIC (32 μM for Cy-f2, 128 μM for Cy-f4), 1 h, 30 °C, 5000× magnification; clotrimazole as positive control
Method: as §4, §5

red blood cells (RBCs) = format: cell-based
Method: (§6) Based on the antimicrobial activity screening, a hemolysis assay was conducted to assess the toxicity of Cy-f1, Cy-f2, and Cy-f4 (Figure 5). For Cy-f1, the hemolysis percentage remained consistently low across all tested concentrations. At 8 μM, Cy-f1 induced approximately 0.12% hemolysis. […] For Cy-f2, the hemolysis percentage also remained consistently low across all tested concentrations. At 8 μM, Cy-f2 induced approximately 0.3% hemolysis, and Cy-f2 stayed stable at 0.3% at 16 μM and 32 μM. […] At 8 μM, it induced approximately 0.7% hemolysis, […]. However, hemolysis increased slightly with higher concentrations, reaching approximately […] and 1.1% at 16 μM and 32 μM, respectively. […] In this experiment Triton X-100 was used as a positive control with a hemolysis rate of 100%.
Figure S4. SEM images of RBCs treated with Cy-f1, Cy-f2, and Cy-f4. (A) SEM images of RBCs
treated with Cy-f1. (B) SEM images of RBCs treated with Cy-f2. (C) SEM images of RBCs treated […]

[5] = test system: Staphylococcus aureus (MRSA, BNCC 330041); format: cell-based
Method: as §1, §2
(§7) Colonies of these bacterial strains were grown in respective agar media, then inoculated in Mueller Hinton (MH) broth and incubated at 37 °C overnight. The peptide solutions were first diluted 1 in 100 (from the stock solution at 20 mM) and then further two-fold dilution in MH broth in a sterile 96-well plate was performed, resulting in 100 µL of broth containing increasing concentrations. Bacteria in their exponential growth phase were diluted in MH broth, and 100 µL of this suspension was added in each well. […] Then, these plates were incubated at 37 °C for 20–22 h.
as §3

[6] = test system: Staphylococcus aureus (BNCC 186335); format: cell-based
Method: as §1, §2, §7, §3

[7] = test system: Pseudomonas aeruginosa (BNCC 125486); format: cell-based
Method: as §1, §2, §7, §3

[8] = test system: Escherichia coli (ATCC 25922); format: cell-based
Method: as §1, §2, §7, §3

[9] = test system: Klebsiella pneumoniae (CMCC(B) 46117); format: cell-based
Method: as §1, §2, §7, §3

[10] = test system: Bacillus subtilis (BNCC 109047); format: cell-based
Method: as §1, §2, §7, §3

red blood cells = format: cell-based, mouse
Method: as §6
For the hemolytic assay, 2 mL of fresh blood was collected from a healthy mouse into an EDTA-coated tube. All procedures regarding the care and use of laboratory animals adhered to the guidelines established by the Guangxi University Ethics Committee (Approval No.: GXU-2024-063). According to the method of Tan with necessary adjustments. The blood was centrifuged and upper supernatant plasma was removed. […] After centrifugation, 200 µL of supernatant were transferred into a 96-well plate and the absorbance was recorded at 576 nm using a microplate reader. […]

[11] = test system: Acinetobacter baumannii (BNCC 337173); format: cell-based
Method: as §1, §2, §7, §3

Compound	Reduction of bacterial viability after 240 min (Klebsiella pneumoniae [1]; 1× MIC (16 μM))	Bacterial viability after 240 min (Klebsiella pneumoniae [1]; 1× MIC (16 μM), start 6.55 Lg CFU/mL, mean of three independent experiments)	Reduction of bacterial viability after 240 min (Klebsiella pneumoniae [1]; 2× MIC (32 μM))	Bacterial viability after 240 min (Klebsiella pneumoniae [1]; 2× MIC (32 μM), mean of three independent experiments)	Bacterial viability within 240 min (Klebsiella pneumoniae [1]; 4× MIC (64 μM), mean of three independent experiments)	MIC against C. tropicalis [2]	MIC against C. neoformans [3]	Cell morphology of K. pneumoniae by SEM (Klebsiella pneumoniae [4])	Cell morphology of C. tropicalis by SEM (Candida tropicalis)	Morphology of red blood cells by SEM (red blood cells (RBCs))	MIC against MRSA [5]	MIC against S. aureus [6]	MIC against P. aeruginosa [7]	MIC against E. coli [8]	MIC against K. pneumoniae [9]	MIC against B. subtilis [10]	Hemolysis rate (positive control) (red blood cells)	MIC against A. baumannii [11]
CC[C@H](C)[C@@H]1NC(=O)[C@H](CCCCN)NC(=O)[C@H](CC(C)C)NC(=O)[C@H](CCCNC(=N)N)NC(=O)[C@H](CS)NC(=O)[C@H](Cc2ccccc2)NC1=O [Cy-f2] (cyclo(CRLKIF))	2.4 Lg CFU/mL	5.60 Lg CFU/mL	3.9 Lg CFU/mL	4.0 Lg CFU/mL	below 1.0 Lg CFU/mL	16 µM (≈ 12.2 µg/mL)	8 µM (≈ 6.09 µg/mL)	surface roughening, cell shrinkage, and partial membrane disruption	surface irregularities, cell wall deformation, and some degree of cell collapse	maintained well-preserved cell morphology	32 µM (≈ 24.4 µg/mL)	8 µM (≈ 6.09 µg/mL)	16 µM (≈ 12.2 µg/mL)	16 µM (≈ 12.2 µg/mL)	16 µM (≈ 12.2 µg/mL)	32 µM (≈ 24.4 µg/mL)		
Triton X-100																	100%	
CCN1CCN(C(=O)N[C@@H](C(=O)N[C@@H]2C(=O)N3C(C(=O)O)=C(CSc4nnnn4C)CS[C@H]23)c2ccc(O)cc2)C(=O)C1=O [cefoperazone sodium, reference compound]								surface roughening, cell shrinkage, and partial membrane disruption										
Clc1ccccc1C(c1ccccc1)(c1ccccc1)n1ccnc1 [clotrimazole, reference compound]									fragmentation and shrinkage									
CC(C)C[C@@H]1NC(=O)[C@H](CCCCN)NC(=O)[C@H](CS)NC(=O)[C@H](Cc2ccccc2)NC(=O)[C@H](Cc2c[nH]c3ccccc23)NC(=O)[C@H](CCCNC(=N)N)NC1=O [Cy-f4] (cyclo(CKLRWF))						64 µM (≈ 53.4 µg/mL)	32 µM (≈ 26.7 µg/mL)	extensive membrane rupture, cell deformation, and leakage of intracellular contents	mild surface roughening and slight deformation but retaining overall structural integrity	maintained well-preserved cell morphology	32 µM (≈ 26.7 µg/mL)	16 µM (≈ 13.3 µg/mL)	128 µM (≈ 107 µg/mL)		32 µM (≈ 26.7 µg/mL)			64 µM (≈ 53.4 µg/mL)
CC[C@H](C)[C@@H]1NC(=O)[C@H](CCCCN)NC(=O)[C@H](CC(C)C)NC(=O)[C@H](CC(C)C)NC(=O)[C@H](CS)NC(=O)[C@H](Cc2ccccc2)NC1=O [Cy-f1] (cyclo(CLLKIF))						64 µM (≈ 46 µg/mL)	16 µM (≈ 11.5 µg/mL)			maintained well-preserved cell morphology	16 µM (≈ 11.5 µg/mL)	8 µM (≈ 5.74 µg/mL)	128 µM (≈ 91.9 µg/mL)	64 µM (≈ 46 µg/mL)	64 µM (≈ 46 µg/mL)	4 µM (≈ 2.87 µg/mL)		32 µM (≈ 23 µg/mL)
